# According to US20100120703A1, “COMPOSITIONS AND METHODS FOR TREATING CANCER” (priority 2007, published 2010):
# Legend:
# [1] = tested on: Sprague Dawley (SD) rats; assay: Serum AST/ALT assay, progression stage; format: in vivo, rat
# Procedure: ALT (Alanine aminotransferase) and AST (Aspartate aminotransferase) are two enzymes that are specifically located in the liver. These two enzymes normally distribute little in blood serum. When liver damage occurs, the hepatocytes break and these two enzymes are released into the blood. An AST/ALT assay was used to diagnose liver damage. Rat blood was collected in a 13 ml BD PLUS-SST II serum vacutainer and allowed to stand for 20 minutes on ice to coagulate. The vacutainer was then centrifuged at 3,500 rpm for 15 minutes. The upper layer serum was collected. The AST/ALT assay was performed within 2 days to minimize the loss of the enzymes.
# The serum AST activity assay was measured by a Stanbio AST (UV-Rate) kit. Fifteen milliliters of ddH2O were added into one bottle of the reagent in the kit and mixed thoroughly according to the kit protocol. One milliliter of the reagent was incubated at 37° C. for at least 10 minutes for each reaction. […] Absorbance was measured at OD 340 nm. After incubation for 1 minute, a reading was taken and the reading at this point was counted as time zero. Readings were then taken at 30 second interval for 3 minutes. The change of absorbance per minute was calculated and the AST activity was calculated by the formula
# The ALT assay was measured by a Stanbio […]. […]
# [2] = tested on: Sprague Dawley (SD) rats; assay: Histological analysis and GST-p immunostaining of liver, progression stage; format: in vivo, rat
# Procedure: The liver samples were fixed with 10% formaldehyde and put in cassettes for dehydration and fixed with wax. Subsequently, liver samples were embedded in the solidified wax and sliced to 5 μm thickness with a microtome machine. Sliced samples were mounted onto Superfrost microscope slides for further studies.
# Slides with liver sections were placed on a slide holder, dewaxed and rehydrated with xylene (3 times, each time 5 minutes), 100% ethanol (3 times, each time 3 minutes), 95% ethanol (3 minutes), 80% ethanol (3 minutes) and distilled water (5 minutes) in order. Slides were then immersed into hematoxylin for about 3 minutes, and the color was allowed to develop for several minutes in water, followed by brief destaining with acid ethanol and water. Slides were immersed into eosin for about 30 seconds to stain the cytoplasm red, followed by washing in tap water for several minutes. Slide-checking was necessary to assure the best staining effect. Slides were then dehydrated with 95% ethanol (3 minutes), 100% ethanol (3 times, each time 5 minutes), and xylene (3 times, each time 5 minutes), in order. Finally, the slides were mounted with coverslips and allowed to dry. […]
# The images were checked and captured by an Axiophot-2 Universal microscope (Zeiss) connected with computer for documentation. The image was recorded by Spot 32 image capture software (Diagnostic Instruments). […]
structure (smiles),measurement,setting,value
"C=CC/C(=N/OS(=O)(=O)[O-])S[C@@H]1OC(CO)[C@@H](O)C(O)C1O.[K+] (stereo partly shown) [SIN, sinigrin]",rat serum ALT level,[1]; positive control 215% of negative control,levels similar to those in the negative control
same,rat serum AST level,[1]; positive control 265% of negative control,levels similar to those in the negative control
same,hepatocyte structure in liver sections (H&E),[2]; 15 mg/kg oral daily,the basic structure was restored without abnormal appearance
same,GST-p positive area / whole section area,[2]; positive control about 30%,less than 10%
